Data reported in the RepoRT retention time repository (doi:10.1021/acs.analchem.1c00972).

Tests used:
[1] = RP, Waters ACQUITY UPLC BEH C18, 100 × 1 mm, 1.7 µm, 50 °C, 0.3 mL/min, estimated dead time 0.17 min; A: water + 10 mM ammonium bicarbonate; B: 10% water + 90% methanol + 10 mM ammonium bicarbonate; gradient (min/%B) 0/0 15/100 21/100 22/0 30/0; conditions: stereoisomer not certain
[2] = RP, Waters ACQUITY UPLC BEH C18, 100 × 1 mm, 1.7 µm, 50 °C, 0.3 mL/min, estimated dead time 0.17 min; A: water + 0.1% formic acid + 20 mM ammonium formate; B: methanol + 0.1% formic acid + 20 mM ammonium formate; gradient (min/%B) 0/0 15/100 21/100 22/0 30/0; conditions: stereoisomer not certain

SMILES	LC retention time [1] [min]	LC retention time [2] [min]
CCCCOC(=O)COC(=O)c1ccccc1C(=O)OCCCC [2-Butoxy-oxoethylbutylphthalate]	16.6	16.2
Clc1nc2ccccc2s1 [2-Chlorobenzothiazole]	13.8	13.5
Clc1ccccn1 [2-Chloropyridine]	8.38	8.31
CCCCCCOC(=O)c1ccccc1C(=O)OCC(CC)CCCC (stereo not given) [2-Ethylhexyl(hexyl)phthalate]	19.4	18.9
CCCCC(CC)COP(=O)(Oc1ccccc1)Oc1ccccc1 (stereo not given) [2-Ethylhexyldiphenyl phosphate]	18.1	17.7
NC(=O)N1c2ccccc2C=Cc2cc(O)ccc21 [2-Hydroxycarbamazepine]	10.8	10.7
Cc1cc(=O)[nH]c(C(C)C)n1 [2-Isopropyl-6-methyl-pyrimidin-4-ol]	8.01	7.61
CC(C)c1ccc2sc3ccccc3c(=O)c2c1 [2-Isopropylthioxanthone]	17.5	17.2
S=c1[nH]c2ccccc2s1 [2-Mercaptobenzothiazole]	8.11	11
Cc1nc2ccccc2s1 [2-Methylbenzothiazole]	12.6	12.3
c1ccc2sc(SN3CCOCC3)nc2c1 [2-Morpholinothiobenzothiazole]	10	12.1
CCCCCCCCn1sccc1=O [2-Octyl-4-isothiazolin-3-one]	15.3	15
Oc1cc(Cl)c(Cl)c(Cl)c1 [3,4,5-trichlorophenol]	14.2	15.2
Cc1cccc(Cl)c1NC(=O)N(C)C [3-(2-CHLORO-6-METHYLPHENYL)-1,1-DIMETHYLUREA]	10.1	10
CC(=O)OC1CC2(C)C3(CO3)C1OC1C=C(C)C(=O)C(O)C12CO (stereo not given) [3-Acetyl-Deoxynivalenol]	9.74	9.62
CN(C)C(=O)NC1CCCCC1 [3-Cyclohexyl-1,1-dimethylurea]	11.1	10.9
Oc1cc(-c2ccc(Cl)cc2)ccc1Cl [3-Hydroxy-4,4'-dichlorobiphenyl]	16	15.9
CNC(=O)Oc1cccc2c1OC(C)(C)C2O (stereo not given) [3-Hydroxycarbofuran]	9.47	9.35
CCCCNC(=O)OCC#CI [3-Iodopropynyl butylcarbamate]	13.2	12.9
CC(=O)Nc1ccc(N)cc1 [4'-Aminoacetanilide]	4.75	8.1
Nc1ccc(Cc2ccc(N)cc2)cc1 [4,4'-Methylenedianiline]	10.7	5.44
CC12CCC3C(CCC4C(O)C(=O)C=CC43C)C1CCC2=O (stereo not given) [4- Hydroxyandrostenedione]	11.9	11.7

SMILES	LC retention time [1] [min]	LC retention time [2] [min]
CN(C)c1ccncc1 [4-(Dimethylamino)pyridine]	7.04	4.07
CN(C)S(=O)(=O)c1ccc(N)cc1 [4-Amino-N,N-dimethylbenzenesulfonamide]	8.01	7.95
NC(=O)c1ccc(N)cc1 [4-Aminobenzamide]	2.63	2.09
Nc1ccc(Nc2ccccc2)cc1 [4-Aminodiphenylamine]	11.5	8.71
CC12CCC3C(CCC4=CC(=O)CCC43C)C1CCC2=O (stereo not given) [4-Androstene-3,17-dione]	14.2	14
COc1cc(Cl)c(OC)cc1N [4-Chloro-2,5-dimethoxyaniline]	11.2	10.4
Cc1c(C=O)c(=O)n(-c2ccccc2)n1C [4-Formyl-antipyrine]	7.74	7.75
Oc1c(Cl)cc(-c2ccc(Cl)cc2)cc1Cl [4-Hydroxy-3,4',5-trichlorobiphenyl]	15.2	16.9
O=C(O)Cc1ccccc1Nc1c(Cl)cc(O)cc1Cl [4-Hydroxy-Diclofenac]	10.7	13.7
CCC(=C(c1ccc(O)cc1)c1ccc(OCCN(C)C)cc1)c1ccccc1 [4-Hydroxytamoxifen]	17	14.3
Cc1ccc(C=C2C(=O)C3(C)CCC2C3(C)C)cc1 (stereo not given) [4-Methylbenzylidene camphor]	17.4	17.1
Oc1ccc(C(F)(F)F)cc1 [4-Trifluoromethylphenol]	12.6	12.8
CC(=O)Nc1cc(Cl)ccc1C [5'-CHLORO-2'-METHYLACETANILIDE]	11.2	11
CCc1cccc(C)c1N [6-Ethyl-2-toluidine]	12.7	10.8
CCNc1ccc2c(C)cc(=O)oc2c1 [7-(Ethylamino)-4-methylcoumarin]	12.5	12.2
CC(=O)OC1CCN2CC=C(COC(=O)C(O)(C(C)C)C(C)O)C12 (stereo not given) [7-Acetyllycopsamine]	11.8	8.13
Cc1cc(=O)oc2cc(N)ccc12 [7-Amino-4-methylcoumarin]	9.4	9.29
CCN(CC)c1ccc2c(C)cc(=O)oc2c1 [7-Diethylamino-4-methylcoumarin]	14.7	14.4
CN(Cc1nc2c(N)nc(N)nc2[nH]c1=O)c1ccc(C(=O)NC(CCC(=O)O)C(=O)O)cc1 (stereo not given) [7-Hydroxymethotrexat]	6.65	8.94
CC(CCC(=O)O)C1CCC2C3C(=O)CC4CC(O)CCC4(C)C3CCC12C (stereo not given) [7-Oxolithocholic acid]	14.3	19.2
NC(=O)N1c2ccccc2CC(O)c2ccccc21 (stereo not given) [10,11-Dihydro-10-hydroxycarbamazepine]	10.9	10.7
CC(=O)OC12COC1CC(O)C1(C)C(=O)C(O)C3=C(C)C(O)CC(O)(C(OC(=O)c4ccccc4)C21)C3(C)C (stereo not given) [10-Deacetylbaccatin III]	12	11.7

SMILES	LC retention time [1] [min]	LC retention time [2] [min]
CC(=O)C1(O)CCC2C3CCC4=CC(=O)CCC4(C)C3CCC21C (stereo not drawn) [17alpha-Hydroxyprogesterone]	14.8	14.5
CC12CCC(=O)C=C1CCC1C2CCC2(C)C1CCC2(C)O (stereo not drawn) [17alpha-Methyltestosterone]	15	14.7
CCN1CCCC1CNC(=O)c1cc(S(N)(=O)=O)ccc1OC (stereo not drawn) [(s)-(-)-Sulpiride]	10.3	6.03
CC(=O)N(C)N(C(=O)C(=O)N(C)C)c1ccccc1 [AMDOPH]	9.52	9.42
CCOCN(C(=O)CCl)c1c(C)cccc1CC [Acetochlor]	15.3	15
CSC(=O)c1cccc2nnsc12 [Acibenzolar-S-methyl]	14	13.7
CCN1CC2(COC)C(O)CC(OC)C34C5CC6(O)C(OC)C(O)C(OC(C)=O)(C5C6OC(=O)c5ccccc5)C(C(OC)C23)C14 (stereo not given) [Aconitin]	15.7	12.1
c1ccc2nc3ccccc3cc2c1 [Acridin]	14.6	8.84
Nc1ncnc2nc[nH]c12 [Adenine]	2.55	5.28
COC(=O)C1=COC(C)C2CN3CCc4c([nH]c5ccccc45)C3CC12 (stereo not given) [Ajmalicine]	15.5	10.1
CCc1cccc(CC)c1N(COC)C(=O)C(=O)O [Alachlor tert-oxanilic acid (OA)]	15.9	15.5
CCOC(=O)CCN(Cc1ccccc1)SN(C)C(=O)ON=C(C)SC [Alanycarb]	15.8	15.5
CCCSc1ccc2nc(NC(=O)OC)[nH]c2c1 [Albendazole]	14.2	13.1
CNC(=O)ON=CC(C)(C)S(C)=O (stereo not given) [Aldicarb Sulfoxide]	6.62	6.57
CNC(=O)ON=CC(C)(C)SC [Aldicarb]	16.4	16.1
COc1cc2nc(N(C)CCCNC(=O)C3CCCO3)nc(N)c2cc1OC (stereo not given) [Alfuzosin]	12.3	9.73
Nc1c(Br)cc(Br)cc1CNC1CCC(O)CC1 (stereo not given) [Ambroxol]	15.4	10.6
CC(=O)OCC(=O)C12OC3(CCCC3)OC1CC1C3CCC4=CC(=O)C=CC4(C)C3(F)C(O)CC12C (stereo not given) [Amcinonide]	16	15.6
CCCCc1oc2ccccc2c1C(=O)c1cc(I)c(OCCN(CC)CC)c(I)c1 [Amiodarone]	20.1	16.7
CC[N+]1([O-])CCCC1CNC(=O)c1cc(S(=O)(=O)CC)c(N)cc1OC (stereo not given) [Amisulpride N-Oxide]	8.43	8.4
CC1(C)SC2C(NC(=O)C(N)c3ccc(O)cc3)C(=O)N2C1C(=O)O (stereo not given) [Amoxicillin]	6.74	5.66
